# Calls of active or inactive are those of the source.
# Legend:
# [1] = target: T1, E3 ubiquitin-protein ligase XIAP (Homo sapiens, UniProt P98170); experiment: Counter Screen using XIAP-Bir3 for Chemical Antagonists of Bir1/2 domains of IAP-family anti-apoptotic proteins. [Related pubchem assays (depositor defined):AID1018, AID1449, AID1514, AID1638, AID1749, AID1750, AID488957, AID488963]
# [2] = target: T1, E3 ubiquitin-protein ligase XIAP; experiment: small molecules displacing peptide from XIAP – biochemical, IAP family, fluorescence polarization (AID 1018); format: functional
# [3] = target: G-protein coupled receptor 55 (Homo sapiens, UniProt Q9Y2T6); experiment: SAR analysis of selective Agonists of GPR55 using an Image-Based Assay - Set 2. [Related pubchem assays (depositor defined):AID1961, AID1965]; format: functional
# Sequence of G-protein coupled receptor 55 (Q9Y2T6 whole entry): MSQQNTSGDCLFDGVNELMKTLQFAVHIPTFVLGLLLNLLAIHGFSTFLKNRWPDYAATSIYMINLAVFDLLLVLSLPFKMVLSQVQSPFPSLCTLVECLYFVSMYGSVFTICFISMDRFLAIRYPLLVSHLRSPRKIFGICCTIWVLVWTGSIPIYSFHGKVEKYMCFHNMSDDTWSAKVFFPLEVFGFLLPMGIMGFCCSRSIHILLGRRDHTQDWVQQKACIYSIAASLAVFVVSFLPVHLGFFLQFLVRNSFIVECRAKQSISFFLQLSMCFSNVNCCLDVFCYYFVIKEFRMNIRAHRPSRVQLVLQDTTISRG
# Cannabinoid receptor 2 [4] = target: T2, Cannabinoid receptor 2 (Homo sapiens, UniProt P34972); experiment: SAR analysis of agonists of the Cannabinoid Receptor 2 using an Image-Based Assay - Set 2. [Related pubchem assays (depositor defined):AID1961, AID1965]; format: functional
# T2 sequence (P34972 whole entry): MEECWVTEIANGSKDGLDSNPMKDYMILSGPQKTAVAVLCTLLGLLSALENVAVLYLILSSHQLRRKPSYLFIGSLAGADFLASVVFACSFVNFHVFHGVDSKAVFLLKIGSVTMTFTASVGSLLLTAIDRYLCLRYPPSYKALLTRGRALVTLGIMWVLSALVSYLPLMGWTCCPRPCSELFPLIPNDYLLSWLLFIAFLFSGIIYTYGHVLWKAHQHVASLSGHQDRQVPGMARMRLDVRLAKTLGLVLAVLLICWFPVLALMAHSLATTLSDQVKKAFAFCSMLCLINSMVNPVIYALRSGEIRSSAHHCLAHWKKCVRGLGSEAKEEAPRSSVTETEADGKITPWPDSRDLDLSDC
# Cannabinoid receptor 1 [5] = target: T3, Cannabinoid receptor 1 (Homo sapiens, UniProt P21554); experiment: SAR analysis of antagonists of the Cannabinoid Receptor 1 using an Image-Based Assay - Set 3. [Related pubchem assays (depositor defined):AID1961, AID1965]; format: functional
# T3 sequence (P21554 whole entry): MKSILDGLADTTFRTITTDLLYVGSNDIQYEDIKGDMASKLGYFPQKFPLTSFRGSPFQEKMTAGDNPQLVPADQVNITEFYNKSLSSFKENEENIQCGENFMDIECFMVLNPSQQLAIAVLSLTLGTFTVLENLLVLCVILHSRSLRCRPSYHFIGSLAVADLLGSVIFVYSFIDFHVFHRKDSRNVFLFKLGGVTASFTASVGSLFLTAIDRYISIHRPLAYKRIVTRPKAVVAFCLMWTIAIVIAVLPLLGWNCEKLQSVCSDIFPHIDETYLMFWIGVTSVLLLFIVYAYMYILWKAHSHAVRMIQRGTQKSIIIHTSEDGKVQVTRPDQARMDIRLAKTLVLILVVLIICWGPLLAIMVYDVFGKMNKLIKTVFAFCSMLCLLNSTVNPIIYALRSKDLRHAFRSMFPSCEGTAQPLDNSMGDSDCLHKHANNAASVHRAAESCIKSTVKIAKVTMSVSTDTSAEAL
# [6] = target: T4, G-protein coupled receptor 35 (Homo sapiens, UniProt Q9HC97); experiment: SAR analysis of Antagonists of the GPR35 Receptor using an Image-Based Assay - Set 4. [Related pubchem assays (depositor defined):[…]]; format: functional
# T4 sequence (Q9HC97 whole entry): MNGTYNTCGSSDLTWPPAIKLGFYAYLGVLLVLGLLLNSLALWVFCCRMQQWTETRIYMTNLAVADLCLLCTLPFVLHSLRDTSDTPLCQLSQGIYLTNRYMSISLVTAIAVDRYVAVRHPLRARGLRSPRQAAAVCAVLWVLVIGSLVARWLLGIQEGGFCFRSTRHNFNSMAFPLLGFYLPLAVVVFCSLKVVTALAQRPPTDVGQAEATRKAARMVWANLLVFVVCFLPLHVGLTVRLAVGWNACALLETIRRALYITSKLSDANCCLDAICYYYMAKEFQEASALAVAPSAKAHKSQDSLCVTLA
# Cannabinoid receptor 2 [7] = target: T2, Cannabinoid receptor 2; experiment: SAR analysis of antagonists of the Cannabinoid Receptor 2 using an Image-Based Assay - Set 2. [Related pubchem assays (depositor defined):AID1961, AID1965]; format: functional
# [8] = target: T4, G-protein coupled receptor 35; experiment: SAR analysis of Agonists of the GPR35 Receptor using an Image-Based Assay - Set 3. [Related pubchem assays (depositor defined):AID1961, AID1965]; format: functional
# Cannabinoid receptor 1 [9] = target: T3, Cannabinoid receptor 1; experiment: SAR analysis of agonists of the Cannabinoid Receptor 1 using an Image-Based Assay - Set 3. [Related pubchem assays (depositor defined):AID1961, AID1965]; format: functional
# [10] = target: Sphingosine 1-phosphate receptor 2 (Homo sapiens, UniProt O95136); experiment: Late stage counterscreen assay for S1P4 antagonists: Fluorescence dose response cell-based screening assay for antagonists of the Sphingosine 1-Phosphate Receptor 2 (S1P2). [Related pubchem assays (depositor defined):AID1510, AID1524, AID1692, AID1853, AID2332, AID489009, AID489017]; format: functional
# Sequence of Sphingosine 1-phosphate receptor 2 (O95136 whole entry): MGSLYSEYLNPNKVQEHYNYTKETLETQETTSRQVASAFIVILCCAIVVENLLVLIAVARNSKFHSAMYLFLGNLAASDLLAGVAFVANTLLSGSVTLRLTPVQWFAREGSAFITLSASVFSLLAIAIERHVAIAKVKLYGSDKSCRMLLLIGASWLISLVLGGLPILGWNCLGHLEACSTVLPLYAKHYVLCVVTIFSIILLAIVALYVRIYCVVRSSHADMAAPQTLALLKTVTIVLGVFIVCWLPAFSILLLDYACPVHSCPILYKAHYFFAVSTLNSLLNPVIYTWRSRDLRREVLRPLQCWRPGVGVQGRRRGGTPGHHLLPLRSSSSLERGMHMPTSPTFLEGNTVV
# [11] = target: Sphingosine 1-phosphate receptor 3 (Homo sapiens, UniProt Q99500); experiment: Late stage counterscreen assay for S1P4 antagonists: Fluorescence dose response cell-based screening assay for antagonists of the Sphingosine 1-Phosphate Receptor 3 (S1P3). [Related pubchem assays (depositor defined):AID1510, AID1524, AID1692, AID1853, AID2332, AID489009, AID489017]; format: functional
# Sequence of Sphingosine 1-phosphate receptor 3 (Q99500 whole entry): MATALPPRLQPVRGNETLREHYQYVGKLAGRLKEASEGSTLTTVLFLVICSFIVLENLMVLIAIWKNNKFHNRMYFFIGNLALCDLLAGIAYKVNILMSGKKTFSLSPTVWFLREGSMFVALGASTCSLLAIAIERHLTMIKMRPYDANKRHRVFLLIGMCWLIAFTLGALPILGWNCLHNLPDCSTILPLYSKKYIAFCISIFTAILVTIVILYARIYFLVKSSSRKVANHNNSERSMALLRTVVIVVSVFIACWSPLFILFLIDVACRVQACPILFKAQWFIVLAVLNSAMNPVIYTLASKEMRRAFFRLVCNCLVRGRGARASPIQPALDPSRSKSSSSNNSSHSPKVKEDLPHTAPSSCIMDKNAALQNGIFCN
# [12] = target: Sphingosine 1-phosphate receptor 5 (Homo sapiens, UniProt Q9H228); experiment: Late stage counterscreen assay for S1P4 antagonists: Fluorescence dose response cell-based screening assay for antagonists of the Sphingosine 1-Phosphate Receptor 5 (S1P5). [Related pubchem assays (depositor defined):AID1510, AID1524, AID1692, AID1853, AID2332, AID489009, AID489017]; format: functional
# Sequence of Sphingosine 1-phosphate receptor 5 (Q9H228 whole entry): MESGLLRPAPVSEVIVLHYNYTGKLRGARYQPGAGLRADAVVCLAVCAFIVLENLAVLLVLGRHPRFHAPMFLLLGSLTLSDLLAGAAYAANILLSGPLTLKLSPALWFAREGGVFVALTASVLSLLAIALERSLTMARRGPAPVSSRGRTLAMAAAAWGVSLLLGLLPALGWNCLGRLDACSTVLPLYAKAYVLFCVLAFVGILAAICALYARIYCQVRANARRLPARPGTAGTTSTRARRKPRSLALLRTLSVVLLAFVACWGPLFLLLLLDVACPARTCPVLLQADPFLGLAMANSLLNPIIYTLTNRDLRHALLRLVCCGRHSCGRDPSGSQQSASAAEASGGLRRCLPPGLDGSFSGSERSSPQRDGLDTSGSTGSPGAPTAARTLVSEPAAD
# [13] = target: T5, Sphingosine 1-phosphate receptor 4 (Homo sapiens, UniProt O95977); experiment: Fluorescence dose response cell-based high throughput screening assay for agonists of the Sphingosine 1-Phosphate Receptor 4 (S1P4). [Related pubchem assays: 1509 (Primary screen.), 1523 (Confirmation screen in triplicates.)]; format: functional
# T5 sequence (O95977 whole entry): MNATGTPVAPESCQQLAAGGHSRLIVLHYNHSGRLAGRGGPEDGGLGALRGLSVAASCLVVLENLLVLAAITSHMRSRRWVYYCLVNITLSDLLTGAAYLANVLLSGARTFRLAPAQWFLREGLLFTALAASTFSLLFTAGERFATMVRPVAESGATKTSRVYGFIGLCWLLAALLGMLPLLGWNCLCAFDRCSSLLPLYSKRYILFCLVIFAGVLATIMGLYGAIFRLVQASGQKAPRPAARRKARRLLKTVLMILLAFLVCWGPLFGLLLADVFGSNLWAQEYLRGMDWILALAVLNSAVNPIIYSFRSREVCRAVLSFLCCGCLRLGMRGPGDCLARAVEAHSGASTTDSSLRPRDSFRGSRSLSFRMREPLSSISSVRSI
# [14] = target: Sphingosine 1-phosphate receptor 1 (Homo sapiens, UniProt P21453); experiment: Fluorescence-based counterscreen assay for S1P4 agonists: Cell-based dose response high throughput screening assay to identify agonists of the Sphingosine 1-Phosphate Receptor 1 (S1P1). [Related pubchem assays (depositor defined):AID1509, AID1523, AID1801, AID463107, AID463118, AID463119, AID463122, AID463123, AID463129, AID463225, AID504400, AID504460]; format: functional
# Sequence of Sphingosine 1-phosphate receptor 1 (P21453 whole entry): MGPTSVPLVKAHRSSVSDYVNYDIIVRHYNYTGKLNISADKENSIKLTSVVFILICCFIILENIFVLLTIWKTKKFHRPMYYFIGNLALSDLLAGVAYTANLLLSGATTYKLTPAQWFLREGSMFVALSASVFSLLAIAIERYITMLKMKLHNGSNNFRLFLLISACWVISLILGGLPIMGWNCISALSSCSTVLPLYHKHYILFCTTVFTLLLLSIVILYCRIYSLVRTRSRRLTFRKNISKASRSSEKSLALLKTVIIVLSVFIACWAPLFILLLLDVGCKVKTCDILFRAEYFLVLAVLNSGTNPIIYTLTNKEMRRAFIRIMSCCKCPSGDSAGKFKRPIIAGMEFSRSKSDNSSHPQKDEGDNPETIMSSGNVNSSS
# [15] = target: Peroxisome proliferator-activated receptor gamma (Homo sapiens, UniProt P37231); experiment: PPARg transcriptional activation, reporter cells – cell-based, luminescence, assay provider, dose response (AID 504447); format: functional
# Sequence of Peroxisome proliferator-activated receptor gamma (P37231 whole entry): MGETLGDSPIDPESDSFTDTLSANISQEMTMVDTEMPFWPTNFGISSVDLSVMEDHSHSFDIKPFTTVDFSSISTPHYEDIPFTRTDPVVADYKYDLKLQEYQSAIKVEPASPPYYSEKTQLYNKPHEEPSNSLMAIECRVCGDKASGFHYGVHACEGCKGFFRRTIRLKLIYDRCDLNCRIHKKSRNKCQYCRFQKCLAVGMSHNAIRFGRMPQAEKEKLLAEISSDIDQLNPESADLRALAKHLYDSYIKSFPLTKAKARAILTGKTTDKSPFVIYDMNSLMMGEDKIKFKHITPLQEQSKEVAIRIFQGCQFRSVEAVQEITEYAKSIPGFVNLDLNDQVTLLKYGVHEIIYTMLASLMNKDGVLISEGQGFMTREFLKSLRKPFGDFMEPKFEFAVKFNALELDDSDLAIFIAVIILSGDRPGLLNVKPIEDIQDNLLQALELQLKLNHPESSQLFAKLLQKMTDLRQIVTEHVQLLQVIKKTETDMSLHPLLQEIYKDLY
# [16] = target: T6, Dual specificity protein phosphatase 3 (Homo sapiens, UniProt P51452); experiment: VHR1 phosphatase inhibitors, biochemical (AID 1878)
# T6 sequence (P51452 whole entry): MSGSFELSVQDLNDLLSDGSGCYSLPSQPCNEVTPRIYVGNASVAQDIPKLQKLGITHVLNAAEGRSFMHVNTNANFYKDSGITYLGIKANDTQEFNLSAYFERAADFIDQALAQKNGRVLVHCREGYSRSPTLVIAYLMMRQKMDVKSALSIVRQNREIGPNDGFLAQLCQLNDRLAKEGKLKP
# [17] = target: Dual specificity protein phosphatase 6 (Rattus norvegicus, UniProt Q64346); experiment: inhibition of rat DUSP6 enzyme activity – biochemical, in vitro, primary screen (AID 425)
# Sequence of Dual specificity protein phosphatase 6 (Q64346 whole entry): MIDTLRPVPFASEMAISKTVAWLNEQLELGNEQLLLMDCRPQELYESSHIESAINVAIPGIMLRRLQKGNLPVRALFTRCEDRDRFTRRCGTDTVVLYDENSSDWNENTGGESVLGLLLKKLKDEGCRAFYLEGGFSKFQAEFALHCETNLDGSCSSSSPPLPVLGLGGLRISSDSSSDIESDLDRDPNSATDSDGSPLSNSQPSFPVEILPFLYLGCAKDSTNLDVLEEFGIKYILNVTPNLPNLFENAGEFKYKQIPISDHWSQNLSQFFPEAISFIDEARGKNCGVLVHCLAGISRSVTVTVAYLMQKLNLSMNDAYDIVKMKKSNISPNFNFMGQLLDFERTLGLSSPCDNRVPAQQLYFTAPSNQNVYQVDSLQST
# [18] = target: T6, Dual specificity protein phosphatase 3; experiment: VHR1 phosphatase inhibitors, primary screen, biochemical, absorbance, uHTS (AID 1654)
# T1 sequence (P98170 whole entry): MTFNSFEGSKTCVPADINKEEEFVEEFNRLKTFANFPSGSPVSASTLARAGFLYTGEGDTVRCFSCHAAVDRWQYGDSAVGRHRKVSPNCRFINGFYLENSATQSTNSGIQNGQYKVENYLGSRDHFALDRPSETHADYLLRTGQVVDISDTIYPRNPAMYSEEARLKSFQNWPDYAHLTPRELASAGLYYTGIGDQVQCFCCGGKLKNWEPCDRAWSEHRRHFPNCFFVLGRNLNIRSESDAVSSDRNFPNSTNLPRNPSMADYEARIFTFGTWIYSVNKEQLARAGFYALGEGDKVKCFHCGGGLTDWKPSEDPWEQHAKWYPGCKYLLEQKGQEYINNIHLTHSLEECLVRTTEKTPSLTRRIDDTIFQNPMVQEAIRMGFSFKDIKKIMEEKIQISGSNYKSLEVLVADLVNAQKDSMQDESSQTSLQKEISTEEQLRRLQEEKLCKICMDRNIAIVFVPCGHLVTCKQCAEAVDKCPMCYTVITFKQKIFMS
structure (smiles),measurement,setting,value
CCNC(=O)CSc1nnc(-c2cccc(S(=O)(=O)N(CC)CC)c2)n1CCc1ccccc1,IC50,[1],> 100 µM (inactive)
same,IC50,[2],> 100 µM (not active)
COc1ccc(S(=O)(=O)N2CCOCC2)cc1NC(=O)c1ccc(-n2nc(C)cc2C)cc1,EC50,[3],0.831 µM (active)
same,EC50,Cannabinoid receptor 2 [4],> 32 µM (inactive)
same,IC50,Cannabinoid receptor 1 [5],20.3 µM (inactive)
same,IC50,[6],> 32 µM (inactive)
same,IC50,Cannabinoid receptor 2 [7],> 32 µM (inactive)
same,EC50,[8],> 32 µM (inactive)
same,EC50,Cannabinoid receptor 1 [9],> 32 µM (inactive)
Cc1cccc(C)c1NC(=O)c1ccc(-c2cc(Cl)ccc2Cl)o1,IC50,[10],7.88 µM (active)
same,IC50,[11],19.5 µM (inactive)
same,IC50,[12],> 25 µM (inactive)
COc1cccc(C2CN(c3ccc(F)cc3F)N=C2c2cccs2)c1OC (stereo not drawn),EC50,[13],11.1 µM (not active)
same,EC50,[14],7.49 µM (active)
O=C(Nc1ccccc1Cl)C(=O)c1cn(CC(=O)N2CCOCC2)c2ccccc12,EC50,[15],2 µM (active)
O=C(O)C1CCC(N2C(=O)c3c(Cl)c(Cl)c(Cl)c(Cl)c3C2=O)CC1 (stereo not drawn),IC50,[16],3.6 µM (active)
same,IC50,[17],113 µM (not active)
same,IC50,[18],5.1 µM (active)

# Reference: ChEMBL document CHEMBL1201862, “PubChem BioAssay data set” (2004)
